Measured values from ChEMBL document CHEMBL1201862, “PubChem BioAssay data set” (2004).
Calls of active or inactive are those of the source.

Experiments:
Protein skinhead-1 = biological target: T1, Protein skinhead-1 (Caenorhabditis elegans, UniProt P34707); type: functional
T1 sequence (P34707 whole entry): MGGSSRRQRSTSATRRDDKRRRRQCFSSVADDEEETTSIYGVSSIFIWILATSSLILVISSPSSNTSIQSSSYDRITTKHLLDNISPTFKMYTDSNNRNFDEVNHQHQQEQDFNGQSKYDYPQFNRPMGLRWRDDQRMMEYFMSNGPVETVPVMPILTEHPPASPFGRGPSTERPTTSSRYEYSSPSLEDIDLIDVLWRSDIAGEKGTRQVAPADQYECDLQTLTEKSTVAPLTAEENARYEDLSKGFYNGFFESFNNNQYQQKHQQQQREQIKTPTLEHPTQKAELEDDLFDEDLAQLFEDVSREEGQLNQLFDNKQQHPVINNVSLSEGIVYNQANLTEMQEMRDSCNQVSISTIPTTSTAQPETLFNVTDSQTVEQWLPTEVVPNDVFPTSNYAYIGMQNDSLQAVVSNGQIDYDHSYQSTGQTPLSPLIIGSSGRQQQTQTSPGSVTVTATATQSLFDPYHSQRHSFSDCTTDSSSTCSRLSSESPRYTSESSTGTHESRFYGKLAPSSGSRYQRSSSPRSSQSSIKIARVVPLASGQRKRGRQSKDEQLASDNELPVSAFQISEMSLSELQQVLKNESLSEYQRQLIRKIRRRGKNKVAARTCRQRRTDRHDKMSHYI

H4 = experiment: Luminescence Cell-Based Dose Response HTS to Identify Activators of 5'UTR Stem-Loop Driven Prion Protein mRNA Translation in H4 Neuroglioblastoma Cells. [Related pubchem assays: 1829 (Project Summary), 1814 (Primary HTS)]; type: functional; settings: Homo sapiens
[1] = Luminescence Cell-Based Dose Response HTS to Identify Activators of Luciferase Translation or Activity in H4 […] Cells. [Related pubchem assays: 1829 (Project Summary), 1814 (Primary HTS)]; type: functional
[2] = biological target: T2, Calpain-2 catalytic subunit (Sus scrofa, UniProt P43367); experiment: m-calpain protease blockers, concentration series – biochemical, fluorogenic peptide substrate, dose response (AID 1420); type: functional
T2 sequence (P43367 whole entry): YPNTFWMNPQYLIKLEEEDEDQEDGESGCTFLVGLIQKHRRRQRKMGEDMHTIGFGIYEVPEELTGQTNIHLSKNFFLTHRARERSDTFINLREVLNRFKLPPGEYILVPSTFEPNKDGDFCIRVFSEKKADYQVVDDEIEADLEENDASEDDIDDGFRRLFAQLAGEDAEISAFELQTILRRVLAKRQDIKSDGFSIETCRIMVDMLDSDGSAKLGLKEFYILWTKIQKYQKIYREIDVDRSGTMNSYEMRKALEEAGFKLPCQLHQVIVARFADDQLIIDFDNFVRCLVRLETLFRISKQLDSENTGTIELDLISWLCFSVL

[3] = viability of PTEN-deleted HCT116 cells – cell-based, HCT116 PTEN knockout, dose response (AID 1047); type: functional;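 also: HCT116 colon tumor cells with PTEN knocked out; cells exposed to compound for 60 hours before readout; potency for loss of cell viability measured by luminescence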
[4] = viability of HCT116 lacking mutant beta-catenin – cell-based, human colon tumor, dose response (AID 1045); type: functional;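 also: HCT116 colon tumor cells with beta catenin knocked out; cells exposed to compound for 60 hours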
[5] = Luminescence Cell-Based Dose Retest to Confirm Inhibitors of Cancer Stem Cells. [Related pubchem assays (depositor defined):AID2717, AID2721]; type: functional; settings: Homo sapiens
cells [6] = type: functional, cell-based
cells [7] = type: functional, cell-based; remark: listed apart in the source
[8] = biological target: FAD-linked sulfhydryl oxidase ALR (Homo sapiens, UniProt P55789); experiment: ALR-catalysed DTT oxidation blockers – biochemical, H2O2 detection, luminescence, cherry-pick, dose response (AID 493248)
[9] = viability of uninfected HEp-2 cells – cell-based, HTS, cytotoxicity control for RSV inhibitor project, dose response (AID 2410); type: functional; settings: human respiratory syncytial virus
Cytochrome P450 2C19 = Cytochrome P450 2C19 (Homo sapiens, UniProt P33261); experiment: Cytochrome panel assay with activity outcomes. Panel member name: p450-cyp2c19 Compounds with AC50 equal or less than 10 uM are considered active; type: functional; settings: read-out: AC50
[10] = Trypanosoma cruzi growth suppression in host cells – NIH3T3 host cells, beta-gal luminescence, confirmation (AID 2044); type: functional, cell-based;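 also: intracellular parasites grown in NIH/3T3 mouse fibroblasts as host cells; luminescent beta-galactosidase reporter signal from transgenic T. cruzi replicating inside host cells; inhibitors lower the luminescence signal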
[11] = microbe, parasite or virus in culture; type: functional; settings: Mycobacterium tuberculosis
[12] = NIH3T3 cell viability loss – ATP luminescence, mouse fibroblasts, counter-screen, dose response (AID 2010); type: functional, cell-based;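 also: cells exposed to compound for about 90 hours before reading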
INS1 = experiment: INS-1E survival protection against cytokine death – cell-based, luminescence, retest, dose response (AID 449756); type: functional; settings: Rattus norvegicus;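 also: cell death triggered by IL-1 beta plus TNF-alpha plus IFN-gamma mixture; protective hits raise ATP signal compared with cytokine alone wells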
Paired box protein Pax-8 = Paired box protein Pax-8 (Homo sapiens, UniProt Q06710); experiment: PAX8 transcriptional activity inhibition in RMG-I – RMG-I cells, luciferase, cherry-pick, dose response (AID 687027); type: functional, cell-based;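 also: luciferase reporter driven by Pax8 target thyroperoxidase promoter measured by SteadyGlo luminescence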
[13] = biological target: T3, Heat shock factor protein 1 (Mus musculus, UniProt P38532); experiment: decrease of HSF1-responsive luciferase luminescence – cell-based, NIH3T3, dose retest, confirmation (AID 2382); type: functional;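 also: NIH3T3 fibroblasts with HSF1-driven luciferase reporter stressed by proteasome inhibitor MG132; luminescence from HSF1-driven luciferase expression after 8 hours of MG132 stress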
T3 sequence (P38532 whole entry): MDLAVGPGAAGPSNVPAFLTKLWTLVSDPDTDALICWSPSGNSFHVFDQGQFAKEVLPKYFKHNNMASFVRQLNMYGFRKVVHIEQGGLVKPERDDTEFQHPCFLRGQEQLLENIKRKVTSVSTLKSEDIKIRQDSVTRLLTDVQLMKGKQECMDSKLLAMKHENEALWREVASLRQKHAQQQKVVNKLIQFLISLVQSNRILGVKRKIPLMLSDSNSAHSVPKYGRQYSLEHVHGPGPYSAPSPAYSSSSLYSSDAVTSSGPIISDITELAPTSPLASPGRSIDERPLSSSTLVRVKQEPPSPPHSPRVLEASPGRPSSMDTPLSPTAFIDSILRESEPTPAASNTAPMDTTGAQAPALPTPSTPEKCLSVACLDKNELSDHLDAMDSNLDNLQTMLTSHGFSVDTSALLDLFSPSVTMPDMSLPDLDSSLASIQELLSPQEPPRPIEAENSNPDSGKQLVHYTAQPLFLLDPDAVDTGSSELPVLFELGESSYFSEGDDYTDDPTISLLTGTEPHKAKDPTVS

[14] = P. falciparum Dd2 growth inhibitors, dose response, SYBR Green, cherry-picked samples (AID 1159567); type: functional, cell-based

Sequence of Paired box protein Pax-8 (Q06710 whole entry): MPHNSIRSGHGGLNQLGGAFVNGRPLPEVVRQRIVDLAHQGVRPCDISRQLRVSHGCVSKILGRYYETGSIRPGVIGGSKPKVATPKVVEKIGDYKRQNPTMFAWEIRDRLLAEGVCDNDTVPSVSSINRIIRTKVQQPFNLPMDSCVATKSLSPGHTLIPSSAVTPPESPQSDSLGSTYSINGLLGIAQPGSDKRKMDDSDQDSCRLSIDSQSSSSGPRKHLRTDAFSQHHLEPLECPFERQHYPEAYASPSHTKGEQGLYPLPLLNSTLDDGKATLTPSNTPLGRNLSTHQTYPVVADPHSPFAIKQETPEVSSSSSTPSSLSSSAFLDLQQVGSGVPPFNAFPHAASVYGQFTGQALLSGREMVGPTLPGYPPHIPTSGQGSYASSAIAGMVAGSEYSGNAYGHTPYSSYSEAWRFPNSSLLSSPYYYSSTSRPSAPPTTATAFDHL
Sequence of FAD-linked sulfhydryl oxidase ALR (P55789 whole entry): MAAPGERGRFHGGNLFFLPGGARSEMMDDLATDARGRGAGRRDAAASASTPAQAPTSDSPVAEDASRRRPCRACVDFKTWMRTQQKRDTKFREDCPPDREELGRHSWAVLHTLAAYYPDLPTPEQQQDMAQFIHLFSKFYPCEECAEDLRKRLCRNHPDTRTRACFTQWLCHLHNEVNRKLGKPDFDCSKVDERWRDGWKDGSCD
Sequence of Cytochrome P450 2C19 (P33261 whole entry): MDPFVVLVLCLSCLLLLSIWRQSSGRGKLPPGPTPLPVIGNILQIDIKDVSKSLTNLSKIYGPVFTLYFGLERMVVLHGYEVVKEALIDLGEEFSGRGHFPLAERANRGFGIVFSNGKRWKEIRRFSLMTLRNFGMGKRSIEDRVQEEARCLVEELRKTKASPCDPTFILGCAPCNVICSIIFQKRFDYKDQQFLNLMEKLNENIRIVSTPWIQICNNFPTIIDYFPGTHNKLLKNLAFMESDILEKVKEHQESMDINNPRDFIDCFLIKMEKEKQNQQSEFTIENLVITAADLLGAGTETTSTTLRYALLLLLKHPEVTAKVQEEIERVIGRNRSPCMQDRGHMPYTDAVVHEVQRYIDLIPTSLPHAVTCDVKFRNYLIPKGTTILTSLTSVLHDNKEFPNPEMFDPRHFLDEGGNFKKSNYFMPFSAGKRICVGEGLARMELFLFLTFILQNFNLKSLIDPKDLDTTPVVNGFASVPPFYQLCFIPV

Cc1c(C(=O)/C=C/c2cccs2)oc2ccc(F)cc12
IC50 (Protein skinhead-1): > 100 µM (inactive) | EC50 (H4): 34.1 µM (inconclusive) | EC50 [1]: 0.139 µM (active)

CC(C)Oc1cccc(C(=O)Nc2ccc(CN3CCOCC3)cc2)c1
IC50 (Protein skinhead-1): 31.1 µM (active)

CN(CC(=O)Nc1ccc(N2CCOCC2)cc1)Cc1cc(=O)n2ccsc2n1
IC50 [2]: < 0.4 µM (not active)

O=C(NC(c1ccc(Cl)cc1)c1c(O)ccc2ccccc12)c1ccccc1 (stereo not drawn)
EC50 [3]: 7.75 µM (active) | EC50 [4]: 8.69 µM (active) | AC50 [5]: 1.23 µM (active)

C#CCN1C(=O)S/C(=C/C=C/c2ccc(N(C)C)cc2)C1=O
IC50 (Protein skinhead-1): > 100 µM (inactive)

FC(F)(F)c1ccc(-c2n[nH]c(S)n2)cc1
EC50 (cells [6]): > 350 µM (not active) | EC50 (cells [7]): > 350 µM (not active) | AC50 [8]: 0.248 µM (active)

C=CCn1c(Sc2nc(C)cs2)nc2c1c(=O)[nH]c(=O)n2C
CC50 [9]: 32.4 µM (active) | IC50 [2]: > 50 µM (not active)

CC(=O)Nc1ccc(NC(=O)CC2Nc3cccc4cccc(c34)NC2=O)cc1 (stereo not drawn)
AC50 [8]: 7.99 µM (active) | AC50 (Cytochrome P450 2C19): 39.8 µM (inconclusive)

CCN1CCN(CC(=O)Nc2sc3c(c2C#N)CCC(C)C3)CC1 (stereo not drawn)
EC50 [3]: 15.8 µM (active) | EC50 [4]: 17.9 µM (active)

N#Cc1c(Cl)cccc1Oc1ccc(S(=O)(=O)Nc2ccccc2)cc1
IC50 [2]: > 50 µM (not active)

Clc1ccccc1-c1nnc2sc(-c3cccs3)nn12
IC50 [2]: 2.83 µM (not active)

O=C(Nc1ccccc1NC(=O)NC1CCCCC1)NC1CCCCC1
EC50 [3]: 15.1 µM (active) | EC50 [4]: 17.8 µM (active)

CC(=O)c1ccc(S(=O)(=O)Nc2cccc(S(=O)(=O)NC3=NCCC3)c2)cc1
AC50 [8]: > 100 µM (inactive)

CN(CCCNC(=O)c1cc2c(Cl)nc3ccccc3c2s1)Cc1ccccc1
EC50 [10]: 0.771 µM (active) | CC50 [11]: 22.2 µM (active) | EC50 [12]: > 60 µM (not active)

Cc1ccc(NC(=O)c2ccc(C(C)(C)C)cc2)cc1-n1cnnn1
IC50 [2]: 0.895 µM (not active)

CNc1ccccc1C(=O)OC(C)C(=O)Nc1ccc(Cl)cn1 (stereo not drawn)
CC50 [11]: 25.3 µM (active)

CC(=O)c1ccc(-n2nncc2-c2ccc([N+](=O)[O-])cc2)cc1
IC50 (Protein skinhead-1): > 100 µM (inactive)

CCCCCc1cc(=O)oc2c(C(CCN3CCCCC3)c3ccc4c(c3)OCO4)c(OC)cc(OC)c12 (stereo not drawn)
AC50 (INS1): 8 µM (active) | AC50 (Paired box protein Pax-8): 13.4 µM (active) | AC50 [5]: 6.41 µM (active)

CC(C)Cn1c(N)c(C(=O)COC(=O)/C=C/c2cccs2)c(=O)n(C)c1=O
IC50 [2]: > 50 µM (not active)

CC1(c2ccc(O)cc2)NC(=O)N(c2ccccc2)N1 (stereo not drawn)
AC50 [8]: 0.015 µM (active) | AC50 [5]: 4.14 µM (active)

O=C(/C=C/c1ccco1)Nc1nc(-c2ccccc2)cs1
IC50 (Protein skinhead-1): 68.6 µM (inactive)

CCCCCn1cnc2sc(-c3ccccc3)cc2c1=O
CC50 [9]: > 50 µM (active) | IC50 (Protein skinhead-1): > 100 µM (inactive) | EC50 (H4): 6.94 µM (active) | EC50 [1]: 2.43 µM (active)

O=C(/C=C/c1c(F)cccc1Cl)c1ccc(F)cc1
CC50 [11]: > 40 µM (active)

OC(COc1cccc2ccccc12)CN1CCN(c2ccccc2Cl)CC1 (stereo not drawn)
IC50 [2]: 3.82 µM (not active)

O=C(CNCc1ccccc1)Nc1ccc(Oc2ccccc2)cc1
IC50 [2]: > 50 µM (not active)

O=C(CN1C(=O)c2ccccc2C1=O)Nc1ccc(-c2nc3ccccc3o2)cc1
IC50 [2]: 17.9 µM (not active)

COc1ccc(N2CCN(C(CNC(=O)C(C)C)c3ccc4c(c3)OCO4)CC2)cc1 (stereo not drawn)
AC50 [8]: 4.01 µM (active)

Nc1ccccc1C#Cc1ccc2[nH]ccc2c1
AC50 [8]: 14.9 µM (active)

N#Cc1ccc(CN2CCN(C(=O)c3cc(C4CC4)nn3-c3ccccc3)CC2)cc1
IC50 (Protein skinhead-1): 37.5 µM (active)

CC(=O)Nc1ccc2c(c1Br)Cc1ccccc1-2
IC50 (Protein skinhead-1): > 100 µM (inactive)

O=[N+]([O-])c1ccc(COc2ccc(CN3CCCCC3)cc2)cc1
IC50 (Protein skinhead-1): 3.46 µM (active)

CCCCN1C[C@H](c2ccc(Br)cc2)[C@@H](CC(=O)Nc2ccc(Br)cc2)C1=O
IC50 (Protein skinhead-1): > 100 µM (inactive)

COC(=O)c1ccc2nc(-c3ccc(C)cc3)c(Cc3cccc(F)c3)n2c1
IC50 (Protein skinhead-1): > 100 µM (inactive)

COc1cccc(S(=O)(=O)N2CC[C@@H]3[C@H](CO)Nc4ccc(C5=CCCCC5)cc4[C@@H]32)c1
AC50 (Paired box protein Pax-8): 10 µM (active)

C[C@@H]1CN([C@H](C)CO)C(=O)c2cc(NS(=O)(=O)c3ccc(F)cc3)ccc2O[C@@H](C)CCCCO[C@H]1CN(C)Cc1ccccc1
AC50 (Paired box protein Pax-8): 17.2 µM (active)

C[C@@H]1CN([C@@H](C)CO)S(=O)(=O)c2ccc(C#Cc3ccc(F)cc3)cc2O[C@@H]1CN(C)C(=O)NC1CCCCC1
AC50 (Paired box protein Pax-8): 8.43 µM (active)

C(=N\Nc1ccc2ccccc2n1)/c1ccc2c(c1)OCCO2
CC50 [11]: > 40 µM (active) | EC50 [13]: < 0.16 µM (active)

Cc1c(/C=N\NC(=O)c2ccc(F)cc2)cnn1C
AC50 [8]: 4.3 µM (active)

CC(/C=N/n1c(S)nnc1-c1ccccn1)=C\c1ccccc1
AC50 [8]: 5.86 µM (active)

C/C(=N/NC(=O)c1cc(-c2cccc([N+](=O)[O-])c2)[nH]n1)c1ccc(Cl)cc1
IC50 [2]: 13.6 µM (not active)

Cc1ccc2nc(C)cc(N/N=C/c3cccnc3)c2c1
AC50 [8]: 6.08 µM (active)

S=C(NCc1ccco1)N/N=C/c1ccccc1Cl
IC50 [2]: 2.44 µM (not active)

COc1ccc2c3c([nH]c2c1)[C@@H](CO)N(S(C)(=O)=O)CC31CCN(Cc2cccc(F)c2)CC1
AC50 [14]: 4.86 µM (active)

O=C(c1ccccn1)N1CC(=O)N2[C@H](CO)[C@@H](c3ccc(C#CCc4ccccc4)cc3)[C@@H]2C1
AC50 [14]: 6.31 µM (active)

N#C[C@@H]1[C@H](c2ccccc2/C=C/c2ccccc2)[C@H](CO)N1S(=O)(=O)c1ccc(F)cc1
AC50 [14]: 6.19 µM (active)

COc1cccc(CN2[C@@H]3CNC[C@H]2[C@H]3c2ccc(-c3ccccc3OC)cc2)c1
AC50 [14]: 5.81 µM (active)

CCCC(=O)N1CC2(C1)CN(Cc1ccc(Cl)cc1)[C@H](CO)c1[nH]c3cc(OC)ccc3c12
AC50 [14]: 6.65 µM (active)

OC[C@H]1CC[C@@H]2O[C@H](CCc3ccc(-c4ccc(F)cc4)cc3)[C@H](n3cc(C4CC4)nn3)C[C@@H]2O1
AC50 [14]: 5 µM (active)

CCNC(=O)c1cc2c(c(-c3cccc(-c4cc5ccccc5o4)c3)n1)[C@@H](CCO)N(C(=O)NC(C)C)C2
AC50 [14]: 6.29 µM (active)
